Laboratory results published in article PMC8330742, “New benzothieno[2,3-c]pyridines as non-steroidal CYP17 inhibitors: design, synthesis, anticancer screening, apoptosis induction, and in silico ADME profile studies” (Journal of Enzyme Inhibition and Medicinal Chemistry, 2021).
Read-outs that look alike come from different tables or passages of the source.

Experiments:
CCRF-CEM = test: NCI-60 SRB screen; assay type: cell-based; settings: Homo sapiens, single dose 10^−5 M, read-out: Growth inhibition (%)
RPMI-8226 = test: NCI-60 SRB screen; assay type: cell-based; settings: Homo sapiens, single dose 10^−5 M, read-out: Growth inhibition (%)
SF-539 = test: NCI-60 SRB screen; assay type: cell-based, human; settings: Homo sapiens, single dose 10^−5 M, read-out: Growth inhibition (%)
SNB-19 = test: NCI-60 SRB screen; assay type: cell-based; settings: Homo sapiens, single dose 10^−5 M, read-out: Growth inhibition (%)
SNB-75 = test: NCI-60 SRB screen; assay type: cell-based, human; settings: Homo sapiens, single dose 10^−5 M, read-out: Growth inhibition (%)
U251 = test: NCI-60 SRB screen; assay type: cell-based, human; settings: Homo sapiens, U-251, single dose 10^−5 M, read-out: Growth inhibition (%)
MALME-3M = test: NCI-60 SRB screen; assay type: cell-based, human; settings: Homo sapiens, single dose 10^−5 M, read-out: Growth inhibition (%)
OVCAR-5 = test: NCI-60 SRB screen; assay type: cell-based, human; settings: Homo sapiens, single dose 10^−5 M, read-out: Growth inhibition (%)
A498 = test: NCI-60 SRB screen; assay type: cell-based, human; settings: Homo sapiens, single dose 10^−5 M, read-out: Growth inhibition (%)
PC-3 = test: NCI-60 SRB screen; assay type: cell-based, human; settings: Homo sapiens; single dose 10^−5 M; PC-3, Prostate cancer; read-out: Growth inhibition (%)
DU-145 = test: NCI-60 SRB screen; assay type: cell-based, human; settings: Homo sapiens; single dose 10^−5 M; DU-145, Prostate cancer; read-out: Growth inhibition (%)
MCF7 = test: NCI-60 SRB screen; assay type: cell-based, human; settings: Homo sapiens, single dose 10^−5 M, MCF-7, Breast cancer, read-out: Growth inhibition (%)
MDA-MB-231/ATCC = test: NCI-60 SRB screen; assay type: cell-based, human; settings: Homo sapiens; single dose 10^−5 M; MDA-MB 231/ATCC, Breast cancer; read-out: Growth inhibition (%)
BT-549 = test: NCI-60 SRB screen; assay type: cell-based, human; settings: Homo sapiens; single dose 10^−5 M; BT-549, Breast cancer; read-out: Growth inhibition (%)
T-47D = test: NCI-60 SRB screen; assay type: cell-based, human; settings: Homo sapiens, T47D, single dose 10^−5 M, Breast cancer, read-out: Growth inhibition (%)
MDA-MB-468 = test: NCI-60 SRB screen; assay type: cell-based, human; settings: Homo sapiens; single dose 10^−5 M; MDA-MB-468, Breast cancer; read-out: Growth inhibition (%)

Compound | inhibition at 10 µM (CCRF-CEM) [%] | inhibition at 10 µM (RPMI-8226; RPMI-8226) [%] | inhibition at 10 µM (SF-539; SF-539) [%] | inhibition at 10 µM (SNB-19; SNB-19) [%] | melting point [°C] | inhibition at 10 µM (CCRF-CEM; Leukaemia) [%] | inhibition at 10 µM (RPMI-8226; RPMI-8226, Leukaemia) [%] | inhibition at 10 µM (SF-539; SF-539, CNS cancer) [%] | inhibition at 10 µM (SNB-19; SNB-19, CNS cancer) [%] | inhibition at 10 µM (SNB-75; SNB-75, CNS cancer) [%] | inhibition at 10 µM (U251; U251, CNS cancer) [%] | inhibition at 10 µM (MALME-3M; Melanoma) [%] | inhibition at 10 µM (OVCAR-5; OVCAR-5, Ovarian cancer) [%] | inhibition at 10 µM (PC-3) [%] | inhibition at 10 µM (DU-145) [%] | inhibition at 10 µM (MCF7) [%] | inhibition at 10 µM (MDA-MB-231/ATCC) [%] | inhibition at 10 µM (BT-549) [%] | inhibition at 10 µM (T-47D) [%] | inhibition at 10 µM (MDA-MB-468) [%] | also measured
COc1ccc(C=C2Sc3c(F)cccc3C2=O)c(OC)c1 [Compound 2a, 2-(2,4-Dimethoxybenzylidene)-7-fluoro[1]benzothiophen-3(2H)-one] | -5.14 | -8.46 | -0.64 | -2.1 | 195 to 197 |  |  |  |  |  |  |  |  |  |  |  |  |  |  |  | inhibition at 10 µM (SNB-75; SNB-75): 12.6%; inhibition at 10 µM (U251; U251): -7.91%; inhibition at 10 µM (MALME-3M): 4.19%; inhibition at 10 µM (OVCAR-5; OVCAR-5): -9.42%; inhibition at 10 µM (A498; A498): -4.03%
COc1ccc(C2NC(=O)C(Cl)c3c2sc2c(F)cccc32)c(OC)c1 (stereo not shown) [Compound 4a, 4-Chloro-1-(2,4-Dimethoxyphenyl)-8-fluoro-1,2-dihydro[1]benzothieno [2,3-c]pyridine-3(4H)-one] | -1.02 | 11.7 | 3.36 | 0.33 | 120 to 122 |  |  |  |  |  |  |  |  |  |  |  |  |  |  |  | inhibition at 10 µM (SNB-75; SNB-75): 22.3%; inhibition at 10 µM (U251; U251): 0.4%; inhibition at 10 µM (MALME-3M): 9.21%; inhibition at 10 µM (OVCAR-5; OVCAR-5): -3.64%; inhibition at 10 µM (A498; A498): 14.9%
COc1ccc(C2NC(=O)C(Cl)c3c2sc2c(F)cccc32)cc1 (stereo not shown) [Compound 4b, 4-Chloro-8-fluoro-1-(4-methoxyphenyl)-1,2-dihydro[1]benzothieno[2,3-c] pyridine-3(4H)-one] | -0.42 | 7.32 | 15.8 | 7.47 | 154 to 156 |  |  |  |  |  |  |  |  |  |  |  |  |  |  |  | inhibition at 10 µM (SNB-75; SNB-75): 22.8%; inhibition at 10 µM (U251; U251): 21.1%; inhibition at 10 µM (MALME-3M): 10.8%; inhibition at 10 µM (OVCAR-5; OVCAR-5): -12.9%; inhibition at 10 µM (A498; A498): 11.1%
O=C1NC(c2ccccc2[N+](=O)[O-])c2sc3c(F)cccc3c2C1Cl (stereo not shown) [Compound 4c, 4-Chloro-8-fluoro-1-(2-nitrophenyl)-1,2-dihydro[1]benzothieno[2,3-c] pyridine-3(4H)-one] | -0.04 | 5.9 | 3.36 | -2.16 | 110 to 112 |  |  |  |  |  |  |  |  |  |  |  |  |  |  |  | inhibition at 10 µM (SNB-75; SNB-75): 11.7%; inhibition at 10 µM (U251; U251): 8.82%; inhibition at 10 µM (MALME-3M): 9.46%; inhibition at 10 µM (OVCAR-5; OVCAR-5): -2.88%; inhibition at 10 µM (A498; A498): -6.23%
N#CC1=C(Cl)NC(c2cccc([N+](=O)[O-])c2)c2sc3c(F)cccc3c21 (stereo not shown) [Compound 7b, 3-Chloro-4-cyano-8-fluoro-1-(3-nitrophenyl)-1,2-dihydro[1]benzothieno [2,3-c]pyridine] |  |  |  |  | 140 to 142 | 3.22 | 12.7 | 3.78 | -0.67 | 8.28 | -7.36 | -2.31 | -3.54 | 3.5 | -14.2 | 8.22 | 7.25 | -2.93 | -9.14 | -7.25 | inhibition at 10 µM (A498; A498, Renal cancer): 19.7%
O=[N+]([O-])c1cccc(C2NC(N3CCOCC3)=C(Cl)c3c2sc2c(F)cccc32)c1 (stereo not shown) [Compound 8b, 4-Chloro-3-(4-morpholino)-8-fluoro-1-(3-nitrophenyl)-1,2-dihydro [1]benzothieno[2,3-c]pyridine] |  |  |  |  | 175 to 177 | 5 | 16.2 | 6.36 | 1.4 | 10.4 | 6.85 | -3.09 | 8.49 | 14.5 | -1.71 | 21 | 18.8 | 4.09 | 20.8 | 1.73 | inhibition at 10 µM (A498; A498, Renal cancer): 10.4%
O=[N+]([O-])c1cccc(C2NC(N3CCCCC3)=C(Cl)c3c2sc2c(F)cccc32)c1 (stereo not shown) [Compound 8c, 4-Chloro-3-(piperidin-1-yl)-8-fluoro-1-(3-nitrophenyl)-1,2-dihydro [1]benzothieno[2,3-c]pyridine] |  |  |  |  | 241 to 243 | 30.3 | 8.74 | -6.63 | -3.36 | 22.4 | -7.81 | 4.61 | -1.61 | 11.9 | -12.5 | 23.3 | 13.9 | -10.5 | 17.5 | -13.9 | 
N#CC1=C(N2CCCCC2)NC(c2cccc([N+](=O)[O-])c2)c2sc3c(F)cccc3c21 (stereo not shown) [Compound 8f, 4-Cyano-3-(piperidin-1-yl)-8-fluoro-1-(3-nitrophenyl)-1,2-dihydro [1]benzothieno[2,3-c]pyridine] |  |  |  |  | 280 to 282 | 3.32 | 14.9 | 6.49 | 1.38 | 5.45 | -6.11 | -10.6 | 5.19 | 8.87 | -8.32 | -0.95 | 15.1 | 1.03 | 2.45 | -8.03 | inhibition at 10 µM (A498; A498, Renal cancer): -0.87%
O=[N+]([O-])c1cccc(C2NC3=C(Nc4ccccc4N3)c3c2sc2c(F)cccc32)c1 (stereo not shown) [Compound 9, 9-Fluoro-7-(3-nitrophenyl)-5,6,7,13-tetrahydro[1]benzothieno[3′,2′:4,5]-pyrido[2,3-b]quinoxaline] |  |  |  |  | 160 to 162 | -1.14 | 12.1 | 3.93 | -0.03 | 10.2 | -3.59 | -7.56 | 3.15 | 7.47 | -11.4 | 1.91 | 17.8 | 5.02 | -5.91 | -10.6 | inhibition at 10 µM (A498; A498, Renal cancer): -0.12%
